Reference: paper PMC7311426, “An amphipathic peptide with antibiotic activity against multidrug-resistant Gram-negative bacteria” (Nature Communications, 2020)
≈ marks a conversion by molar mass, not a printed value. Where two headings read alike, the source gives them in different places.

Columns and labels:
Experiment in all cases: microbe, parasite or virus in culture
[1] = tested on: E. coli clinical isolates
Outline: (§1)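 MIC90 from CLSI broth microdilution (M07-A9) in two clinical-isolate panels. US panel (331 isolates, 2010-2012): AA139 diluted in 0.01% acetic acid/0.1% BSA. Worldwide panel (445 isolates, 2011-2013, four regions): CAMHB, with 0.002% Tween 80 added for AA139 and polymyxin B.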

[2] = tested on: K. pneumoniae clinical isolates
Outline: as §1

[3] = tested on: P. aeruginosa clinical isolates
Outline: as §1

E. coli ATCC 25922 = type: cell-based, Escherichia coli; design: MIC, Survanta (5%) replicates: unit not given beside the values; details: for MIC, Survanta (5%) replicates / MIC, Serum (50%) / MIC, Serum (50%) replicates: E. coli ATCC 25922, FDA control strain; for MIC, Survanta (5%) replicates: BMD with 5% Survanta lung surfactant; for MIC, Serum (50%) / MIC, Serum (50%) replicates: BMD with 50% human serum; for MIC, Serum (50%): mode, or median where no mode, n=4 to 6, where n=2 differs the higher value; for MIC: Escherichia coli, E. coli ATCC 25922, n=2 to 6, mode or median
Outline: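 Broth microdilution MIC in Mueller Hinton broth, 12-point 2-fold series from 128 or 64 down to 0.06 or 0.03 μg mL^−1, 5 × 10^5 CFU mL^−1 inoculum. Read visually after 18-20 h at 37 °C without shaking; n ≥ 6. Additional tests in CAMHB, and in MHB with 1% agarose.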

A. baumannii ATCC 19636 = type: cell-based, Acinetobacter baumannii; details: for MIC, Survanta (5%) / MIC, Survanta (5%) replicates: A. baumannii ATCC 19636, type strain, BMD with 5% Survanta lung surfactant; for MIC, Survanta (5%): mode, or median where no mode, n=4 to 6, where n=2 differs the higher value; for MIC: Acinetobacter baumannii, ATCC19636, read-out: MIC, Survanta (5%), A. baumannii ATCC 19636 type strain, n=2 to 6, mode or median
K. pneumoniae = type: cell-based, Klebsiella pneumoniae; details: for MIC: Klebsiella pneumoniae
[4] = Worldwide isolates 2011-2013, E. coli n = 112
[5] = Worldwide isolates 2011-2013, K. pneumoniae n = 114
[6] = Worldwide isolates 2011-2013, P. aeruginosa n = 111
[7] = ATCC25922, read-out: MIC, SURVANTA (5%), MHB + 5% (v/v) lung surfactant
[8] = K. pneumoniae ATCC 700603, ESBL, OXA-2/SHV-18, BMD with 5% Survanta lung surfactant, mode, or median where no mode, n=4 to 6, where n=2 differs the higher value
[9] = K. pneumoniae ATCC 700603, ESBL, OXA-2/SHV-18, BMD with 5% Survanta lung surfactant, replicate 1
[10] = K. pneumoniae ATCC 700603, ESBL, OXA-2/SHV-18, BMD with 5% Survanta lung surfactant, replicate 2
[11] = K. pneumoniae ATCC 700603, ESBL, OXA-2/SHV-18, BMD with 50% human serum, mode, or median where no mode, n=4 to 6, where n=2 differs the higher value
[12] = K. pneumoniae ATCC 700603, ESBL, OXA-2/SHV-18, BMD with 50% human serum, replicate 1
[13] = K. pneumoniae ATCC 700603, ESBL, OXA-2/SHV-18, BMD with 50% human serum, replicate 2
[14] = K. pneumoniae BAA-2146, NDM-1, BMD with 5% Survanta lung surfactant, mode, or median where no mode, n=4 to 6, where n=2 differs the higher value
[15] = K. pneumoniae BAA-2146, NDM-1, BMD with 5% Survanta lung surfactant, replicate 1
[16] = K. pneumoniae BAA-2146, NDM-1, BMD with 5% Survanta lung surfactant, replicate 2
[17] = K. pneumoniae BAA-2146, NDM-1, BMD with 5% Survanta lung surfactant, replicate 3
[18] = K. pneumoniae BAA-2146, NDM-1, BMD with 5% Survanta lung surfactant, replicate 4
[19] = ATCC13883, read-out: MIC, Serum (50%)
[20] = ATCC700603, read-out: MIC, Serum (50%)
[21] = ATCC700603, read-out: MIC, Survanta (5%)
[22] = BAA2146, read-out: MIC, Survanta (5%)

polymyxin B [PolymyxinB, reference compound]
MIC50 [1, 4]: 0.03 µg/mL | MIC90 [1, 4]: 0.03 µg/mL | MIC50 [2, 5]: 0.03 µg/mL | MIC90 [2, 5]: 0.06 µg/mL | MIC50 [3, 6]: 0.12 µg/mL | MIC90 [3, 6]: 0.25 µg/mL

COc1cc(Cc2cnc(N)nc2N)cc(OC)c1OC [Trimethoprim]
MIC, Survanta (5%) replicates (E. coli ATCC 25922; replicate 1): 1 | MIC, Survanta (5%) replicates (E. coli ATCC 25922; replicate 2): 1 | MIC, Survanta (5%) replicates (E. coli ATCC 25922; replicate 3): 1 | MIC, Survanta (5%) replicates (E. coli ATCC 25922; replicate 4): 1 | MIC, Serum (50%) (E. coli ATCC 25922): 4 | MIC, Serum (50%) replicates (E. coli ATCC 25922; replicate 1): 4 | MIC, Serum (50%) replicates (E. coli ATCC 25922; replicate 2): 2 | MIC, Serum (50%) replicates (E. coli ATCC 25922; replicate 3): 4 | MIC, Serum (50%) replicates (E. coli ATCC 25922; replicate 4): 4 | MIC (E. coli ATCC 25922; [7]): 1 µg/mL | MIC (E. coli ATCC 25922; ATCC25922, read-out: MIC, Serum (50%), MHB + 50% (v/v) human serum): 4 µg/mL | MIC, Survanta (5%) (A. baumannii ATCC 19636): 32 | MIC, Survanta (5%) replicates (A. baumannii ATCC 19636; replicate 1): >64 | MIC, Survanta (5%) replicates (A. baumannii ATCC 19636; replicate 2): >64 | MIC, Survanta (5%) replicates (A. baumannii ATCC 19636; replicate 3): 16 | MIC, Survanta (5%) replicates (A. baumannii ATCC 19636; replicate 4): 32 | MIC (A. baumannii ATCC 19636): 32 µg/mL (≈ 110 µM) | MIC, Serum (50%) (K. pneumoniae): 0.5 | MIC, Serum (50%) replicates (K. pneumoniae): 0.5 | MIC, Survanta (5%) (K. pneumoniae): 1 | MIC, Survanta (5%) (K. pneumoniae; [8]): 4 | MIC, Survanta (5%) replicates (K. pneumoniae; [9]): 4 | MIC, Survanta (5%) replicates (K. pneumoniae; [10]): 2 | MIC, Serum (50%) (K. pneumoniae; [11]): 32 | MIC, Serum (50%) replicates (K. pneumoniae; [12]): 32 | MIC, Serum (50%) replicates (K. pneumoniae; [13]): 16 | MIC, Survanta (5%) (K. pneumoniae; [14]): >64 | MIC, Survanta (5%) replicates (K. pneumoniae; [15]): >64 | MIC, Survanta (5%) replicates (K. pneumoniae; [16]): >64 | MIC, Survanta (5%) replicates (K. pneumoniae; [17]): >64 | MIC, Survanta (5%) replicates (K. pneumoniae; [18]): >64 | MIC (K. pneumoniae; [19]): 0.5 µg/mL (≈ 1.72 µM) | MIC (K. pneumoniae; ATCC13883, read-out: MIC, Survanta (5%)): 1 µg/mL (≈ 3.44 µM) | MIC (K. pneumoniae; [20]): 32 µg/mL (≈ 110 µM) | MIC (K. pneumoniae; [21]): 4 µg/mL (≈ 13.8 µM) | MIC (K. pneumoniae; [22]): > 64 µg/mL

CNC(C)C1CCC(N)C(OC2C(N)CC(N)C(OC3OCC(C)(O)C(NC)C3O)C2O)O1 (stereo not shown) [Gentamicin, gentamicin, reference compound]
MIC90 ([1]; Escherichia coli): 32 µg/mL (≈ 67 µM) | MIC90 ([1]; Escherichia coli, US isolates 2010–2012, E. coli MDR, n = 31): > 32 µg/mL | MIC90 ([1]; Escherichia coli, US isolates 2010–2012, E. coli Non-MDR, n = 24): 8 µg/mL (≈ 16.8 µM) | MIC50 [1, 4]: 0.5 µg/mL (≈ 1.05 µM) | MIC90 [1, 4]: 32 µg/mL (≈ 67 µM) | MIC90 ([2]; Klebsiella pneumoniae, US isolates 2010–2012, K. pneumoniae Non-MDR, n = 24): 8 µg/mL (≈ 16.8 µM) | MIC90 ([2]; Klebsiella pneumoniae, US isolates 2010–2012, K. pneumoniae XDR, n = 55): > 32 µg/mL | MIC50 [2, 5]: 0.5 µg/mL (≈ 1.05 µM) | MIC90 [2, 5]: > 32 µg/mL | MIC90 ([3]; Pseudomonas aeruginosa, US isolates 2010–2012, P. aeruginosa Non-MDR, n = 41): > 32 µg/mL | MIC90 ([3]; Pseudomonas aeruginosa, US isolates 2010–2012, P. aeruginosa XDR, n = 37): > 32 µg/mL | MIC50 [3, 6]: 2 µg/mL (≈ 4.19 µM) | MIC90 [3, 6]: > 32 µg/mL

O=C(O)c1cn(C2CC2)c2cc(N3CCNCC3)c(F)cc2c1=O [Ciprofloxacin, ciprofloxacin]
MIC, Survanta (5%) replicates (E. coli ATCC 25922; replicate 1): ≤0.03 | MIC, Survanta (5%) replicates (E. coli ATCC 25922; replicate 2): ≤0.03 | MIC, Survanta (5%) replicates (E. coli ATCC 25922; replicate 3): ≤0.03 | MIC, Survanta (5%) replicates (E. coli ATCC 25922; replicate 4): ≤0.03 | MIC, Serum (50%) (E. coli ATCC 25922): ≤0.03 | MIC, Serum (50%) replicates (E. coli ATCC 25922; replicate 1): ≤0.03 | MIC, Serum (50%) replicates (E. coli ATCC 25922; replicate 2): ≤0.03 | MIC, Serum (50%) replicates (E. coli ATCC 25922; replicate 3): ≤0.03 | MIC, Serum (50%) replicates (E. coli ATCC 25922; replicate 4): ≤0.03 | MIC (E. coli ATCC 25922; [7]): ≤ 0.03 µg/mL | MIC, Survanta (5%) (A. baumannii ATCC 19636): 1 | MIC, Survanta (5%) replicates (A. baumannii ATCC 19636; replicate 2): 1 | MIC, Survanta (5%) replicates (A. baumannii ATCC 19636; replicate 3): 1 | MIC, Survanta (5%) replicates (A. baumannii ATCC 19636; replicate 4): 1 | MIC (A. baumannii ATCC 19636): 1 µg/mL (≈ 3.02 µM) | MIC, Survanta (5%) replicates (K. pneumoniae; K. pneumoniae ATCC 13883, type strain, BMD with 5% Survanta lung surfactant, replicate 1): 0.5 | MIC, Survanta (5%) replicates (K. pneumoniae; K. pneumoniae ATCC 13883, type strain, BMD with 5% Survanta lung surfactant, replicate 2): 0.5 | MIC, Survanta (5%) replicates (K. pneumoniae; K. pneumoniae ATCC 13883, type strain, BMD with 5% Survanta lung surfactant, replicate 3): 0.125 | MIC, Survanta (5%) replicates (K. pneumoniae; K. pneumoniae ATCC 13883, type strain, BMD with 5% Survanta lung surfactant, replicate 4): 0.125 | MIC, Serum (50%) replicates (K. pneumoniae; K. pneumoniae ATCC 13883, type strain, BMD with 50% human serum, replicate 1): ≤0.03 | MIC, Serum (50%) replicates (K. pneumoniae; K. pneumoniae ATCC 13883, type strain, BMD with 50% human serum, replicate 2): ≤0.03 | MIC, Serum (50%) (K. pneumoniae; K. pneumoniae ATCC 13883, type strain, BMD with 50% human serum, where n=2 differs the higher value is recorded): ≤0.03 | MIC, Survanta (5%) (K. pneumoniae; [8]): 1 | MIC, Survanta (5%) replicates (K. pneumoniae; [9]): 2 | MIC, Survanta (5%) replicates (K. pneumoniae; [10]): 2 | MIC, Survanta (5%) replicates (K. pneumoniae; K. pneumoniae ATCC 700603, ESBL, OXA-2/SHV-18, BMD with 5% Survanta lung surfactant, replicate 3): 0.5 | MIC, Survanta (5%) replicates (K. pneumoniae; K. pneumoniae ATCC 700603, ESBL, OXA-2/SHV-18, BMD with 5% Survanta lung surfactant, replicate 4): 1 | MIC, Serum (50%) (K. pneumoniae; [11]): 0.125 | MIC, Serum (50%) replicates (K. pneumoniae; [12]): 0.125 | MIC, Serum (50%) replicates (K. pneumoniae; [13]): 0.06 | MIC, Survanta (5%) (K. pneumoniae; [14]): >64 | MIC, Survanta (5%) replicates (K. pneumoniae; [15]): >64 | MIC, Survanta (5%) replicates (K. pneumoniae; [16]): >64 | MIC, Survanta (5%) replicates (K. pneumoniae; [17]): >64 | MIC, Survanta (5%) replicates (K. pneumoniae; [18]): >64 | MIC (K. pneumoniae; [19]): ≤ 0.03 µg/mL | MIC (K. pneumoniae; [20]): 0.125 µg/mL (≈ 0.377 µM) | MIC (K. pneumoniae; [21]): 1 µg/mL (≈ 3.02 µM) | MIC (K. pneumoniae; [22]): > 64 µg/mL
